Columns and labels:
Assay type in all cases: in vivo
[1] = test system: Septoria tritici; assay: Septoria tritici on wheat, isopyrazam with compound E (Example 8); conditions: wheat leaf area infected 12 days after spray; isopyrazam 3, 10, 30 and 100 mg/l, adjuvant 0.1% by volume; mean over four rates, four replicates
Experimental: Wheat plants were inoculated with the fungus Septoria tritici. Four days after inoculation the plants were sprayed with a diluted suspension concentrate formulation of the fungicide isopyrazam at rates of 3, 10, 30 and 100 mg of the fungicide per liter of spray solution, using a laboratory track sprayer which delivered the spray at a rate of 200 liters per hectare. Spray tests were also carried out with a diluted suspension concentrate additionally comprising the carbonate compound E (see Table 7) added to the spray solution at a rate of 0.1% v/v, based on the quantity of spray liquor. The leaves of the plants were assessed visually 12 days after the spray application and the damage was expressed as the percentage of the leaf area infected. Each spray test was replicated four times across the four application rates.
The results shown in Table 13 below are mean averages over the four rates of isopyrazam and the four replicates, and are compared to the efficacy of isopyrazam in the absence of an adjuvant, and isopyrazam in the presence of oleyl ethoxylate 20EO butyl end capped adjuvant used as a standard adjuvant for comparative purposes (at 0.1% by volume).

[2] = test system: Septoria tritici; assay: Septoria tritici on wheat, isopyrazam with B92-P-/B96-P-carbonate (Example 10); conditions: wheat leaf area infected 14 days after spray; isopyrazam 3, 10, 30 and 100 mg/l, adjuvant 0.1% by volume; mean over four rates, twelve replicates
Experimental: Wheat plants were inoculated with the fungus Septoria tritici. Four days after inoculation the plants were sprayed with a diluted suspension concentrate formulation of the fungicide isopyrazam at rates of 3, 10, 30 and 100 mg of the fungicide per liter of spray solution, using a laboratory track sprayer which delivered the spray at a rate of 200 liters per hectare. Spray tests were also carried out with diluted suspension concentrates additionally comprising the carbonates B92-P-carbonate and B96-P-carbonate (see Table 1) which were added to the spray solution at a rate of 0.1% v/v, based on the quantity of spray liquor. The leaves of the plants were assessed visually 14 days after the spray application and the damage was expressed as the percentage of the leaf area infected. Each spray test was replicated twelve times across the four application rates.
The results shown in Table 15 below are mean averages over the four rates of isopyrazam and the twelve replicates, and are compared to the efficacy of isopyrazam in the absence of an adjuvant, and isopyrazam in the presence of oleyl ethoxylate 20EO butyl end capped which was used as a standard for comparative purposes (at 0.1% by volume).

[3] = test system: Brachiaria plantaginea, Digitaria sanguinalis, Commelina benghalensis and Polygonum convulvulus; assay: Glasshouse post-emergence spray test, mesotrione with adjuvant (Example 3), mean across species; conditions: mesotrione 30 or 60 g/ha, carbonate 0.2% or 0.5% Tween 20 + Rhodasurf DA/630-E; 14 and 21 days; Tukey HSD letter
Experimental: (§1) Brachiaria plantaginea, Digitaria sanguinalis, Commelina benghalensis and Polygonum convulvulus seeds were sown into standard soil in pots and cultivated under controlled conditions in a glasshouse (at 24/18° C. day/night; 16 hours light; 65% humidity).
(§2) When the plants were at the vegetative stage of 2-4 leaves they were sprayed with an aqueous spray solution containing the herbicide mesotrione and 0.2% v/v of one of the carbonates B92-P-Carbonate, B92-B-Carbonate and B96-P-Carbonate (see Table 1).
(§3) The spray solution was applied with a cabinet tracksprayer with a flat fan nozzle (Teejet 11002VS) and an application volume of 200 liter/ha (at 2 bar). Mesotrione was applied at either 30 or 60 grams of pesticide per hectare.
(§4) The test plants were then grown on, in a glasshouse under controlled conditions (at 24/18° C. day/night; 16 hours light; 65% humidity) and watered twice a day. After 14 and 21 days the test was evaluated for general crop injury (100% equals total damage to a plant; 0% equals no damage to a plant).
(§5) The results shown in Table 5 below are mean averages over the two rates of mesotrione, three replicates and the two assessment timings, and are compared to the efficacy of mesotrione in the absence of an adjuvant, and mesotrione in the presence of the commercially available tank-mix adjuvant, Tween 20 ®+Rhodasurf DA/630-E® (2:1 in water).

[4] = test system: Brachiaria plantaginea; assay: Glasshouse post-emergence spray test, mesotrione with adjuvant (Example 3); conditions: mesotrione 30 or 60 g/ha, carbonate 0.2% or 0.5% Tween 20 + Rhodasurf DA/630-E; mean over two rates, three replicates, 14 and 21 days
Experimental: as §1, §2, §3, §4, §5

[5] = test system: Commelina benghalensis; assay: as above; conditions: mesotrione 30 or 60 g/ha, carbonate 0.2% or 0.5% Tween 20 + Rhodasurf DA/630-E; mean over two rates, three replicates, 14 and 21 days
Experimental: as §1, §2, §3, §4, §5

[6] = test system: Digitaria sanguinalis; assay: as above; conditions: mesotrione 30 or 60 g/ha, carbonate 0.2% or 0.5% Tween 20 + Rhodasurf DA/630-E; mean over two rates, three replicates, 14 and 21 days
Experimental: as §1, §2, §3, §4, §5

[7] = test system: Polygonum convulvulus; assay: as above; conditions: mesotrione 30 or 60 g/ha, carbonate 0.2% or 0.5% Tween 20 + Rhodasurf DA/630-E; mean over two rates, three replicates, 14 and 21 days
Experimental: as §1, §2, §3, §4, §5

[8] = test system: Brachiaria plantaginea, Digitaria sanguinalis, Commelina benghalensis and Polygonum convulvulus; assay: Glasshouse spray test, mesotrione with carbonates A-D (Example 6), mean over four plant species; conditions: Table 10: mesotrione 30 or 60 g/ha, compounds A-D 0.2%, Tween + Rhodasurf 0.5%; 25 days; mean over rates, replicates, four species
Experimental: as §1
When the plants were at the vegetative stage of 2-4 leaves they were sprayed with an aqueous spray solution containing the herbicide mesotrione and 0.2% v/v of one of the carbonates A, B, C and D (see Table 7).
as §3
The test plants were then grown on, in a glasshouse under controlled conditions (at 24/18° C. day/night; 16 hours light; 65% humidity) and watered twice a day. After 25 days the test was evaluated for general crop injury or phytotoxicity (100% equals total damage to a plant; 0% equals no damage to a plant).
The results shown in Table 10 below are mean averages over the two rates of mesotrione, the three replicates and the four plant species and are compared to the efficacy of mesotrione in the absence of an adjuvant, and mesotrione in the presence of the commercially available tank-mix adjuvant, Tween 20 ®+Rhodasurf DA/630-E® (combined in a 2:1 ratio) at 0.5% by volume.

[9] = test system: Lolium perenne; assay: Glasshouse post-emergence spray test, pinoxaden with adjuvant (Example 4); conditions: pinoxaden 7.5 or 15 g/ha, adjuvant 0.2%; mean over two rates, three replicates, 14 and 21 days
Source text: (§6) When the plants were at the vegetative stage of 2-3 leaves they were sprayed with an aqueous spray solution containing the herbicide pinoxaden and 0.2% v/v of one of the carbonates B92-P-Carbonate, B92-B-Carbonate and B96-P-Carbonate (see Table 1).
(§7) The spray solution was applied with a cabinet tracksprayer with a flat fan nozzle (Teejet 11002VS) and an application volume of 200 liter/ha (at 2 bar). Pinoxaden was applied at either 7.5 or 15 grams of pesticide per hectare. […] After 14 and 21 days the test was evaluated for general crop injury (100% equals total damage to a plant; 0% equals no damage to a plant).

[10] = test system: Avena fatua; assay: as above; conditions: pinoxaden 7.5 or 15 g/ha, adjuvant 0.2%; mean over two rates, three replicates, 14 and 21 days
Source text: as §6, §7

[11] = test system: Alopecurus myosuroides; assay: as above; conditions: pinoxaden 7.5 or 15 g/ha, adjuvant 0.2%; mean over two rates, three replicates, 14 and 21 days
Source text: as §6, §7

[12] = test system: Setaria viridis; assay: as above; conditions: pinoxaden 7.5 or 15 g/ha, adjuvant 0.2%; mean over two rates, three replicates, 14 and 21 days
Experimental: (§8) Avena fatua, Lolium perenne, Setaria viridis and Alopecurus myosuroides seeds were sown into standard soil in pots and cultivated under controlled conditions in a glasshouse (at 20/16° C. day/night; 15 hours light; 65% humidity).
as §6
The spray solution was applied with a cabinet tracksprayer with a flat fan nozzle (Teejet 11002VS) and an application volume of 200 liter/ha (at 2 bar). Pinoxaden was applied at either 7.5 or 15 grams of pesticide per hectare. The test plants were then grown on in a glasshouse under controlled conditions (at 24/18° C. day/night; 16 hours light; 65% humidity) and watered twice a day. After 14 and 21 days the test was evaluated for general crop injury (100% equals total damage to a plant; 0% equals no damage to a plant).
The results shown in Table 6 below are mean averages over the two rates of pinoxaden, three replicates and the two assessment timings, and are compared to the efficacy of pinoxaden in the absence of an adjuvant, and pinoxaden in the presence of the tris(2-ethylhexyl)phosphate [TEHP, used as a standard, for comparative purposes] (at 0.2% by volume).

[13] = test system: Avena fatua, Lolium perenne, Setaria viridis and Alopecurus myosuroides; assay: Glasshouse post-emergence spray test, pinoxaden with adjuvant (Example 4), mean across species; conditions: pinoxaden 7.5 or 15 g/ha, adjuvant 0.2%; 14 and 21 days; Tukey HSD letter
Source text: as §6, §7

[14] = test system: Avena fatua, Lolium perenne, Setaria viridis and Alopecurus myosuroides; assay: Glasshouse spray test, pinoxaden with carbonates A-E (Example 7), mean over four plant species; conditions: 22 days, mean over rates, replicates, four species
Experimental: as §8
When the plants were at the vegetative stage of 2-3 leaves they were sprayed with an aqueous spray solution containing the herbicide pinoxaden and 0.2% v/v of one of the carbonates A, B, C, D and E (see Table 7).
The spray solution was applied with a cabinet tracksprayer with a flat fan nozzle (Teejet 11002VS) and an application volume of 200 liter/ha (at 2 bar). Pinoxaden was applied at either 7.5 or 15 grams of pesticide per hectare.
The test plants were then grown on. in a glasshouse under controlled conditions (at 24/18° C. day/night; 16 hours light; 65% humidity) and watered twice a day. After 22 days the test was evaluated for general crop injury or phytotoxicity (100% equals total damage to a plant; 0% equals no damage to a plant).
The results shown in Table 11 below are mean averages over the two rates of pinoxaden, the three replicates and the four plant species, and are compared to the efficacy of pinoxaden in the absence of an adjuvant, and pinoxaden in the presence of tris(2-ethylhexyl)phosphate, used as a standard adjuvant for comparative purposes (at 0.2% by […] volume).

## CC(C)C1C2CCC1c1c(NC(=O)c3cn(C)nc3C(F)F)cccc12 (stereo not drawn) [Isopyrazam]
[1]
  Mean % infection: 65.1%
[2]
  Mean % infection: 76.9%

## CS(=O)(=O)c1ccc(C(=O)C2C(=O)CCCC2=O)c([N+](=O)[O-])c1 [Mesotrione]
[3]
  Mean percentage kill, Mean across species: 42.5 B %
[4]
  Mean percentage kill BRAPL: 1.7%
[5]
  Mean percentage kill COMBEN: 53.3%
[6]
  Mean percentage kill DIGSA: 44.2%
[7]
  Mean percentage kill POLCONV: 70.8%
[8]
  Mean % Phytotoxicity: 33.71%

## CCc1cc(C)cc(CC)c1-c1c(OC(=O)C(C)(C)C)n2n(c1=O)CCOCC2 [Pinoxaden]
[9]
  Mean percentage kill LOLIUM PERENNE: 1.7%
[10]
  Mean percentage kill AVENA FATUA: 10.0%
[11]
  Mean percentage kill ALOPECURUS MYOSUROIDES: 0%
[12]
  Mean percentage kill SETARIA VIRIDIS: 0%
[13]
  Mean percentage kill, Mean across species: 2.9 C %
[14]; Table 11: pinoxaden 7.5 or 15 g/ha, compounds A-D or tris(2-ethylhexyl)phosphate 0.2% by volume
  Mean % Phytotoxicity: 4.25%
[14]; Table 12: pinoxaden 7.5 or 15 g/ha, compound E or tris(2-ethylhexyl)phosphate 0.2% by volume
  Mean % Phytotoxicity: 0%
